The record followed here is a melting point compilation (Tetko et al.; mined from patent text by program, amines drawn as free bases though some values may be those of a salt).

A value given as a limit tells only on which side of the number the result lay.

In general, melting point refers to the temperature, or range, at which the solid turns liquid. The molecule `O=C1c2ccccc2C(=O)N1OCc1cn(C(c2ccccc2)(c2ccccc2)c2ccccc2)nn1` showed a melting point of 195 to 200 °C.

Regarding `CN(C)c1ccncc1CCCOc1ccccc1OCCCC(=O)O`, the melting point fell in the range of 106 to 108 °C.

In turn, `O=C(O)c1cc2c(s1)C(=O)CCC2` displayed a melting point of 174 to 175 °C.

`CCOC(=O)c1c2ccc(CC(=O)NOC(=O)NCCCCN)ccc-2c(C(=O)OCC)c1N`: the melting point was found to be 150 °C.

`Cc1ccccc1-c1c(NC(=O)Nc2c(C)cccc2C(C)C)c(=O)n(C)c2ccc(Cl)cc12` displayed a melting point of 195 to 196 °C.

`NC(=O)Cc1ccccc1OCCn1ccnc1`: the melting point was in the range of 116 to 118 °C.

`CC1SC(=NO)C(C)(C)NC1=O` (stereo not given) displayed a melting point of 199 to 202 °C.

As for `O=CN(O)C(CC1CCC2(CC1)OCCO2)CS(=O)(=O)c1ccc(Oc2ccc(OC(F)(F)F)cc2)cc1` (stereo not given), the melting point lay within 140 to 141 °C.

Regarding `CC1(c2ccc(C3(O)CCCCCC3)cc2)OCCO1`, the melting point lay in the range of 77 to 79 °C.

With `N#Cc1nn(-c2c(Cl)cc(C(F)(F)F)cc2Cl)c(N)c1-c1ccccc1C(F)(F)F`, the melting point stood at 161 °C.

Turning to `O=C1NCC(=O)c2ncn(C3OC(COC(=O)c4ccccc4)C(OC(=O)c4ccccc4)C3OC(=O)c3ccccc3)c2N1` (stereo not given), the melting point stood at 252 °C.

`CN(C)N=Nc1c[nH]c(=O)[nH]c1=O` registered a melting point of 166 to 167 °C.

Take `NNC(=O)C(F)(F)c1cccc(Cl)n1`: the melting point was in the range of 165 to 167 °C.

The molecule `COC1(N)C=CC(C(=O)c2cnc(Nc3ccccc3)s2)=CC1` (stereo not given) displayed a melting point of 222 °C.

With `O=C(O)c1cn(-c2ccccc2)c2c(F)c(F)c(F)cc2c1=O`, the melting point was in the range of 88 to 90 °C.

`CC1(C)CCC(C)(C)c2cc3c(cc21)CCc1nc(-c2ccc(C(=O)O)cc2)sc1-3` showed a melting point of 275 to 278 °C.

Take `O=C(O)c1ccc(Cn2ncc3ccccc32)cc1`: the melting point fell in the range of 178 to 179 °C.

Turning to `O=C(O)/C=C/C=C(c1cccc([N+](=O)[O-])c1)c1cccc([N+](=O)[O-])c1`, the melting point was in the range of 234 to 237 °C.

In turn, `CN(C)Cc1ccc2cc(C(=O)Nc3ccc(-c4ccc(Cl)cc4)cc3)ccc2c1` gave a melting point of 240 to 242 °C.

`O=c1nc(-c2cccc(Oc3ccccc3)n2)sc2ccccc12` yielded a melting point of 161 °C.

With `CCC(OC(=O)C1CC1)c1ccc(Cl)c2nc3n(c12)CCCN3c1ccc(OC)cc1Cl` (stereo not given), the melting point lay within 130 to 132 °C.

For `Cn1nnc(-c2cccc(Oc3cccc(C(F)(F)F)c3)n2)n1`, the melting point lay in the range of 58 to 61 °C.

The molecule `COc1ccc2cc3c(=O)n(C)cc(C(=O)NCCN(C)C)c3nc2c1Cl` yielded a melting point of 209 to 212 °C.

Take `Cc1c(C)c(-c2cccc(CO)c2)c(C)c(C)c1O`: the melting point is 152 to 153 °C.

As to `CNC(=S)NNc1ccnc2c(NC(=O)c3c(Cl)cccc3Cl)cccc12`, the melting point is greater than 258 °C.

For the molecule `CCOC(=O)Cc1ccc(NC(=O)C(COc2ccc(Cl)cc2)NS(=O)(=O)c2ccc(Cl)cc2)cc1` (racemic), the melting point fell in the range of 136 to 138 °C.

`COc1cc2c(c3c1OC(C)(C)C3)C(c1cccc(N(CC(N)=O)S(C)(=O)=O)c1)=NC(C)(C)C2`: the melting point lay in the range of 190 to 191 °C.

For the molecule `CCCCCCCCCCCCCCCCCCOc1cc(OC(C)=O)cc(N(CC(=O)O)CC(=O)O)c1`, the melting point was in the range of 122 to 127 °C.

`N#Cc1cccc(-c2ccc(O)cc2)c1` yielded a melting point of 135 to 141 °C.

`CCOCc1nc2c(N)nc3cc(OCc4ccccc4)ccc3c2n1CC(C)(C)NC(C)=O`: the melting point is 202 to 205 °C.

Turning to `CC(C)CC(=O)Nc1cccc(-c2ccnc3c(-c4cccc(CN5CCOCC5)c4)cnn23)c1`, the melting point lay within 170 to 173 °C.

`CC1CC2C3CC(F)C4=CC(=O)C=CC4(C)C3C(O)CC2(C)C1C(=O)COC(=O)CCC(=O)O` (stereo not given): the melting point fell in the range of 212 to 214 °C.

With `COC(=O)c1ccc(C(=O)NC2CCC(NC(=O)c3ccc(C(=O)OC)cc3)CC2)cc1` (stereo not given), the melting point was greater than 350 °C.

Molecule `Cc1nc(-c2ccc(-c3ccc(C(=O)Nc4cc(OCCN(C)C)ccc4Cl)cc3)c(C)c2)no1` showed a melting point of 101 to 102 °C.

For the molecule `C=Cc1cnc(Nc2ccc(C#N)cc2)nc1Nc1c(C)cc(C)cc1C`, the melting point is 237 to 242 °C.

Regarding `O=C(CN1CCC(Cc2ccccc2)CC1)Nc1cccc([N+](=O)[O-])c1`, the melting point fell in the range of 102 to 104 °C.

`c1ccc(OCCSCc2nnc(-c3ccc(OCCN4CCCC4)cc3)o2)cc1` had a melting point of 65 °C.

With `CSc1ccc(C(=O)C#CCO)cc1`, the melting point lay in the range of 73 to 74 °C.

`O=Cc1c[nH]c(Cc2ccccc2)n1` had a melting point of 130 to 136 °C.

Molecule `O=C(Nc1ccc(C2(O)CCCN(C(=O)OCc3ccccc3)C2)c(F)c1)OCc1ccccc1` (stereo not given) yielded a melting point of 137 to 139 °C.

Molecule `COC(=O)C(C(=O)OC)c1ccc(Br)cc1[N+](=O)[O-]` yielded a melting point of 86 to 88 °C.

Consider `COc1cccc(C(=O)NCC2CCCCC2)c1NC(=O)N[C@@H](Cc1ccc(NC(=O)c2c(Cl)cccc2Cl)cc1)C(=O)O`, for which the melting point was found to be 175 °C.

For the molecule `O=C(CCc1ccc(S(=O)(=O)N(C(=O)c2c3ccccc3nc3ccccc23)c2ccc3c(c2)OCCO3)cc1)ON1C(=O)CCC1=O`, the melting point is 140 °C.

`CCN(c1ccc(N2CCN(c3ccc(OC)cc3)CC2)cc1)c1nnc(C)s1`: the melting point amounted to 187 °C.

Consider `Cc1cccc(C)c1-n1cnc(N)nc1=O`, for which the melting point is 248 to 250 °C.

Regarding `O=C(O)C1Cc2cc3c(-c4ccc(F)cc4)noc3c(Cl)c2O1` (stereo not given), the melting point fell in the range of 225 to 226 °C.

`O=[N+]([O-])c1ccc2nc(-c3ccc4c(c3)OCO4)ncc2c1` registered a melting point of 220 to 222 °C.

As for `COC(=O)CC(Cc1ccccc1)C(=O)N[C@@H](Cc1ccccc1)C(=O)O` (stereo not given in full), the melting point was in the range of 100 to 104 °C.

The molecule `CCN(Cc1cc(Br)ccc1N)c1ccc(C(N)=O)nn1` showed a melting point of 208 to 210 °C.

`COCCOc1ccc(CCC(=O)NS(=O)(=O)c2ccc(Cl)cc2)c(Oc2ncc(C(F)(F)F)cc2Cl)c1` registered a melting point of 140 to 142 °C.

Consider `CC(C)N1CCC(n2nc(-c3c(-c4ccccc4)nn4ccccc34)ccc2=O)CC1`, for which the melting point came to 158 °C.

The molecule `O=P(O)(O)C(O)(CC1(c2ccc(Cl)cc2)C=CN(c2ccccc2)N1)P(=O)(O)O` (stereo not given) showed a melting point of 199 °C.

Molecule `CN(Cc1cccc(-c2ccc(CC3SC(=O)NC3=O)cc2)c1)C(=O)c1ccc(-c2ccc(O)cc2)cc1` (stereo not given) yielded a melting point of 211 to 213 °C.

For the molecule `CCOC(=O)C1=C(C)NC(C#N)=C(C(=O)OCC)C1c1ccccc1C(F)(F)F` (stereo not given), the melting point was in the range of 140 to 143 °C.

On to `Oc1ccc(-c2ncc3ncc(-c4cccs4)cc3n2)cc1`, for which the melting point is 240 to 242 °C.

Regarding `COc1ccc(CN(Cc2ccco2)S(=O)(=O)c2ccc(C(=O)O)cc2)cc1`, the melting point was 151 to 152 °C.

Consider `CCOC1CC2(C)C(CCC3C4CC=CC4(C)CC(N(C)C)C32)CC1O` (stereo not given), for which the melting point lay within 51 to 54 °C.

`Nc1cc(C(=O)Nc2ccccc2)ccc1OC(F)(F)F` displayed a melting point of 160 to 162 °C.

In turn, `O=C(Nc1n[nH]c2cc(Cl)ccc12)c1ccccc1` came in with a melting point of 188 °C.

For the molecule `CC(=O)c1cnc(O)c(Cl)c1`, the melting point lay in the range of 188 to 189 °C.

In turn, `O=S(=O)(Cc1nc2ccc(Cl)cc2[nH]1)c1ccccn1` had a melting point of 183 to 186 °C.

For the molecule `BrC(Br)(Br)c1nc2ccccc2s1`, the melting point fell in the range of 79 to 80 °C.

On to `Cc1cc2ccccc2nc1C(=O)O`, for which the melting point was in the range of 141 to 142 °C.

`COc1cc(OC)nc(NC(=O)OC(C)C)n1` returned a melting point of 51 to 54 °C.

For `COC(=O)C1=C(C)NC(C)=C(C(=O)OCCN2CCN(C(c3ccc(C)cc3)c3ccc(C)cc3)CC2)C1c1cccc([N+](=O)[O-])c1` (stereo not given), the melting point was 83 to 87 °C.

Molecule `O=C1c2ccccc2C2C(c3ccccc31)C2(F)F` (stereo not given) gave a melting point of 150 °C.

`Cc1cc(CNC(=O)c2cc(-c3ccc(C(C)(C)C)cc3)nn2CCN2CCOCC2)ccc1OC(C)(C)C(=O)O` registered a melting point of 140 °C.

The molecule `O=C(CCc1ccccc1[N+](=O)[O-])c1c(O)c2cccnc2n(-c2ccccc2)c1=O` yielded a melting point of 238 to 240 °C.

Consider `COc1cccnc1C(O)c1ccc(NC(=O)C2=Cc3cc(-c4ccc(C)cc4)ccc3OCC2)cc1` (stereo not given), for which the melting point fell in the range of 232 to 233 °C.

In turn, `Cc1[nH]cnc1C=C1CCc2c(C)c3ccccc3n2C1=O` came in with a melting point of 252 to 255 °C.

Take `CC(C)(C)OC(=O)C(Cc1ccccc1)c1ccc([N+](=O)[O-])cc1` (stereo not given): the melting point lay within 98 to 99 °C.

In the case of `Cn1c(C(F)(F)F)cc(=O)n(-c2cc(OCCNC=O)c(Cl)cc2F)c1=O`, the melting point lay in the range of 128 to 131 °C.

Molecule `Cc1[nH]n(C2CCCCC2)c2nc(-c3ccncc3)nc(=O)c1-2` came in with a melting point of 292 to 293 °C.

`CS(=O)(=O)CC(=O)N[C@H]1CC[C@H](CCN2CCN(c3nccc4c3OCC4)CC2)CC1`: the melting point was found to be 187 °C.

With `O=C1CC2(CCCC2)C1(Cl)CC(Cl)(Cl)Cl` (stereo not given), the melting point is 70 to 73 °C.

For the molecule `CNC(=NC#N)NCCSCc1noc(NC(=N)N)n1`, the melting point lay in the range of 185 to 188 °C.

`COC(=O)C1=C(C#N)NC(C)=C(C(=O)OC(C)C)C1c1cccc([N+](=O)[O-])c1` (stereo not given) displayed a melting point of 120 to 122 °C.

`O=C(O)COc1cc(F)ccc1C(=S)NCc1nc2c(F)c(F)cc(F)c2s1` registered a melting point of 150 °C.

In turn, `O=[N+]([O-])c1c(NCCCO)cc(Cl)cc1NCCCO` showed a melting point of 127 °C.

For the molecule `CCCCN(CCCC)c1ccc(C=CC=CC=CC2=C(C#N)C(=C(C#N)C#N)OC2(C)C)c(OC)c1`, the melting point fell in the range of 156 to 160 °C.

Consider `CCOc1cccc(-c2ccc(C3=CCN(S(=O)(=O)C4(C(=O)O)CCOCC4)CC3)cc2C)c1`, for which the melting point lay within 203 to 205 °C.

In turn, `N#Cc1cc2c(cc1F)OCC21C(=O)Nc2ccccc21` (stereo not given) showed a melting point of 222 to 224 °C.

For the molecule `Cc1c(Cl)ccc2c1[nH]c1c(CO)cccc12`, the melting point was found to be 187 °C.

`CCOC(=O)CN1C(=O)C(NC(=O)Nc2cccc(C)c2)N=C(C)c2cccc(C)c21` (stereo not given) came in with a melting point of 230 to 231 °C.

With `CC1(C)Cc2cccc(O)c2S1`, the melting point lay within 87 to 92 °C.
